# Data: ChEMBL document CHEMBL3259747, “Small chemicals with inhibitory effects on PtdIns(3,4,5)P3 binding of Btk PH domain” (Bioorg Med Chem Lett, 2014)
# Biological target: T1, Tyrosine-protein kinase BTK (Homo sapiens, UniProt Q06187)
# Test: Inhibition of PtdIns(3,4,5)P3 binding to Btk PH domain (unknown origin) expressed in Escherichia coli BL21(DE3) RIL cells by surface plasmon resonance assay relative to untreated control
# T1 sequence (Q06187 whole entry, the tested form may be a part): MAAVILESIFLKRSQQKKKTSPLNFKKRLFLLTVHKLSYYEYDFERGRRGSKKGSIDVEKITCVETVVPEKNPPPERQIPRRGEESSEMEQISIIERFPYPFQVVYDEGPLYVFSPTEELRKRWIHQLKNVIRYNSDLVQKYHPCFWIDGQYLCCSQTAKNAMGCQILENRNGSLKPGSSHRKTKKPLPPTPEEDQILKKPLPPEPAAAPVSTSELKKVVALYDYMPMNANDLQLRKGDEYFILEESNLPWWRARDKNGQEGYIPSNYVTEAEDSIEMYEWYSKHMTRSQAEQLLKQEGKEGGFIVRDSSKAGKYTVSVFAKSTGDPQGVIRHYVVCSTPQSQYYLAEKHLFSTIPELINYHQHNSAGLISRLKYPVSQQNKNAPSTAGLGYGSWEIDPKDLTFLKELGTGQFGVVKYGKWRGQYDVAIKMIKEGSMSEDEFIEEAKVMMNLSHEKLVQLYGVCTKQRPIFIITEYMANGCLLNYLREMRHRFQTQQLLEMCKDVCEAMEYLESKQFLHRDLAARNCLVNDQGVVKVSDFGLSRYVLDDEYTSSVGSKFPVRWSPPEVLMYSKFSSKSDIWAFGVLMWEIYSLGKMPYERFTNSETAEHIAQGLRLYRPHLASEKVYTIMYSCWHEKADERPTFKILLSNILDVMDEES
row,Compound,IC50
1,O=C(O)c1cc(P(=O)(O)O)n[nH]1,17 µM

# Biological target: T2, Epsin-1 (Homo sapiens, UniProt Q9Y6I3)
# T2 sequence (Q9Y6I3 whole entry): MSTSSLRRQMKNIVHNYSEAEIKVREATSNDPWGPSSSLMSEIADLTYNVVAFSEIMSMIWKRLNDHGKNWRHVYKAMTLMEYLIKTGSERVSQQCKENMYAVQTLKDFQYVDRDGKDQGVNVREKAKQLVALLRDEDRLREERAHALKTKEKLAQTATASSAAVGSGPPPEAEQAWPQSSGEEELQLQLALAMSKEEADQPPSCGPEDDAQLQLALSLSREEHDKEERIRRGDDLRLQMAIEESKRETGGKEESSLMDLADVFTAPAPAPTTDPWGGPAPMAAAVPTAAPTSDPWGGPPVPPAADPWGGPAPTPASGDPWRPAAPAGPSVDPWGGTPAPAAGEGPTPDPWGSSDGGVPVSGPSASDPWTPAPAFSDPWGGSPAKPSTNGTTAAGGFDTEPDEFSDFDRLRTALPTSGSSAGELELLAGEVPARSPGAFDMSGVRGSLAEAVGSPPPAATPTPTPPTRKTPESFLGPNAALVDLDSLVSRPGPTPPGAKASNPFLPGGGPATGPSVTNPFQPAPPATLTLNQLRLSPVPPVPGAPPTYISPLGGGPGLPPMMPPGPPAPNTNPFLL
# Test: Inhibition of PtdIns(4,5)P2 binding to Epsin1 ENTH domain (unknown origin)
row,Compound,IC50
1,O=C(O)c1cc(P(=O)(O)O)n[nH]1,46 µM

# Biological target: T1, Tyrosine-protein kinase BTK
# Test: Inhibition of PtdIns(3,4,5)P3 binding to Btk PH domain (unknown origin) expressed in Escherichia coli BL21(DE3) RIL cells at 100 uM by surface plasmon resonance assay relative to untreated control
row,Compound,inhibition
1,COP(=O)(O)C1=NNC(C)(C(=O)O)C1 (stereo not drawn),52%
2,CC1(C(=O)O)NN=C(P(=O)(O)O)C1C(=O)O (stereo not drawn),64%
3,CCOP(=O)(O)C1=NNC(C)(C(=O)O)C1 (stereo not drawn),41%
4,CCOP(=O)(O)c1cc(C(=O)O)[nH]n1,37%
5,O=C(O)c1cc(P(=O)(O)O)n[nH]1,95%
6,O=C1[C@@H]2C[C@@H]3O[C@]2(C(O)C3OP(=O)(O)O)[C@@H](P(=O)(O)O)N1Cc1ccccc1 (stereo partly drawn),11%
7,CC1(C(=O)O)CC([PH](=O)O)=NN1 (stereo not drawn),71%
8,O=C1[C@@H]2C[C@H]3CC[C@@]2(O3)[C@@H](P(=O)(O)O)N1Cc1ccccc1,38%
9,CCOP(=O)(O)c1n[nH]c(C(=O)O)c1C(=O)O,34%
10,COP(=O)(O)c1cc(C(=O)O)[nH]n1,48%
11,O=C1[C@@H]2C[C@@H]3O[C@]2(C(O)C3O)[C@@H](P(=O)(O)O)N1Cc1ccccc1 (stereo partly drawn),13%
